For eight compounds, IC50 results are on record in BindingDB's records for doi:10.1021/jm00054a015 (Merck Research Laboratories, 1993).

A word on the IC50: it is the point on the concentration scale where inhibition reaches its midpoint. A lower IC50 goes with greater potency.

A value given as a limit tells only on which side of the number the result lay.

This assay has as its target T1, Dimer of Gag-Pol polyprotein [489-587] (Human immunodeficiency virus 1, UniProt P12497).
T1 construct: 489-587
In words: Protease Inhibition Assay. The conditions noted are these: pH 5.5; 30 °C. On the procedure: Sensitivity of HIV-1 protease activity to protease inhibitors was determined by a peptide substrate cleavage assay. Protease products were analyzed on a reverse-phase high-pressure liquid chromatograph.
On to `CC(C)(C)NC(=O)C1C[C@@H]2CCCC[C@@H]2CN1C[C@@H](O)[C@H](Cc1ccccc1)NC(=O)O[C@H]1C=CCOC1` (stereo partly drawn) [(3S)-3,6-dihydro-2H-pyran-3-yl N-[(2S,3R)-4-[(4aS,8aS)-3-(tert-butylcarbamoyl)-decahydroisoquinolin-2-yl]-3-hydroxy-1-phenylbutan-2-yl]carbamate], for which half-maximal inhibition (IC50) was put at 314 nM.
In the case of `O=C(N[C@@H](Cc1ccccc1)[C@@H](O)C[C@@H](Cc1ccccc1)C(=O)N[C@H]1c2ccccc2C[C@H]1O)O[C@@H]1CCCOC1` [(3R)-oxan-3-yl N-[(2S,3S,5R)-5-benzyl-3-hydroxy-5-{[(1S,2R)-2-hydroxy-2,3-dihydro-1H-inden-1-yl]carbamoyl}-1-phenylpentan-2-yl]carbamate], the IC50 is less than 0.03 nM.
As for `CC(C)(C)NC(=O)C1C[C@@H]2CCCC[C@@H]2CN1C[C@@H](O)[C@H](Cc1ccccc1)NC(=O)O[C@H]1CCCOC1` (stereo partly drawn) [(3S)-oxan-3-yl N-[(2S,3R)-4-[(4aS,8aS)-3-(tert-butylcarbamoyl)-decahydroisoquinolin-2-yl]-3-hydroxy-1-phenylbutan-2-yl]carbamate], the figure is 392 nM.
`CC(C)(C)NC(=O)C1C[C@@H]2CCCC[C@@H]2CN1C[C@@H](O)[C@H](Cc1ccccc1)NC(=O)O[C@@H]1CCCOC1` (stereo partly drawn) [(3R)-oxan-3-yl N-[(2S,3R)-4-[(4aS,8aS)-3-(tert-butylcarbamoyl)-decahydroisoquinolin-2-yl]-3-hydroxy-1-phenylbutan-2-yl]carbamate] gave an IC50 of 308 nM.
The same measure for `O=C(N[C@@H](Cc1ccccc1)[C@@H](O)C[C@@H](Cc1ccccc1)C(=O)N[C@H]1c2ccccc2C[C@H]1O)O[C@H]1CCCOC1` [(3S)-oxan-3-yl N-[(2S,3S,5R)-5-benzyl-3-hydroxy-5-{[(1S,2R)-2-hydroxy-2,3-dihydro-1H-inden-1-yl]carbamoyl}-1-phenylpentan-2-yl]carbamate]: less than 0.03 nM; for `CC(C)(C)NC(=O)C1C[C@@H]2CCCC[C@@H]2CN1C[C@@H](O)[C@H](Cc1ccccc1)NC(=O)OC(C)(C)C` (stereo partly drawn) [tert-butyl N-[(2S,3R)-4-[(4aS,8aS)-3-(tert-butylcarbamoyl)-decahydroisoquinolin-2-yl]-3-hydroxy-1-phenylbutan-2-yl]carbamate]: greater than 3000 nM.
The same measure for `CC(C)(C)NC(=O)C1C[C@@H]2CCCC[C@@H]2CN1C[C@@H](O)[C@H](Cc1ccccc1)NC(=O)O[C@@H]1C=CCOC1` (stereo partly drawn) [(3R)-3,6-dihydro-2H-pyran-3-yl N-[(2S,3R)-4-[(4aS,8aS)-3-(tert-butylcarbamoyl)-decahydroisoquinolin-2-yl]-3-hydroxy-1-phenylbutan-2-yl]carbamate]: 48.9 nM; for `O=C(N[C@@H](Cc1ccccc1)[C@@H](O)C[C@@H](Cc1ccccc1)C(=O)N[C@H]1c2ccccc2C[C@H]1O)O[C@H]1CCOC1` [(3S)-oxolan-3-yl N-[(2S,3S,5R)-5-benzyl-3-hydroxy-5-{[(1S,2R)-2-hydroxy-2,3-dihydro-1H-inden-1-yl]carbamoyl}-1-phenylpentan-2-yl]carbamate]: less than 0.03 nM.
